According to patent publication US4661516A, “Diaminocyclohexane platinum complexes” (Research Corporation, priority 1984, dated 1987):

How the values were obtained:
[1] = system: Wild type L1210 leukemic cells; assay: In vitro cytotoxicity, wild type L1210 leukemic cells (L1210/0); type: cell-based; details: L1210, 72 hours incubation
Description: Four ml of cell suspension (10^5 cells/ml) are added to culture tubes and the appropriate concentration (0.01, 0.1, 1 or 10 μg/ml final concentration) of drug added to the culture tubes. After 72 hours of incubation, the cell concentration of control and experimental cultures are determined with the aid of a Coulter Counter® Model ZBf and the percent inhibition calculated. […]

[2] = system: L1210 cells; assay: In vivo anti-tumor activity, L1210, single i.p. injection; set-up: species or system BDF1 mice; details: single i.p.
Description: About 24 hours after inoculation of the cells, the mice were injected intraperitoneally with varying dosages of complexes of the present invention. […] Long term survival signifies that animals were alive 60 days after inoculation with L1210 cells.

[3] = system: L1210/0 leukemia cells; assay: In vivo anti-tumor activity, L1210 (L1210/0), multiple i.p. doses; set-up: species or system BDF1 mice; details: days 1,5,9
Description: BDF1 mice were inoculated intraperitoneally with 10^6 L1210 cells. About 24 hours after inoculation of the cells, the mice were injected intraperitoneally with varying dosages of complexes of the present invention. Six mice were used for each dosage level in each experiment with an equal number of control mice inoculated with 10^6 L1210 cells and left untreated with a given complex. The results [%T/C=(survival time of treated animals/survival time of control animals)×100] are set forth below. Long term survival signifies that animals were alive 60 days after inoculation with L1210 cells.
The procedure of Example 16 was repeated except that the treated animals were injected with multiple doses of the complex as indicated below:
The anti-tumor activity of compound number 3 was evaluated against cells sensitive to (L1210/0) and resistant to (L1210/PDD) the standard platinum complex cis-diamminedichloroplatinum(II).
The following complexes were tested in vivo oncolytic activity following 3 i.p. injections (days 1, 5, 9) according to the protocol described in Examples 16 and 17.
BDF1 mice were innoculated intraperitoreally with 10^6 L1210 leukemia cells and treatment was begun on the next day (day 1). Two treatment schedules, i.e. single i.p. injection of the drug and i.p. injections on days 1, 5 and 9 according to the protocol described in Examples 16 and 17 were used.

| Compound | ID50 [1] | % T/C ([2]; 12.5 mg/kg) | % T/C ([2]; 25 mg/kg) | % T/C ([2]; 50 mg/kg) | % T/C ([2]; 100 mg/kg) | further results |
| --- | --- | --- | --- | --- | --- | --- |
| NC1CCCCC1N.O=S(=O)([O-])CCCl.O=S(=O)([O-])CCCl.[Pt+2] (stereo not drawn) [Compound 33, Cis-bis-chloroethanesulfonato(DACH)Pt(II).1H 2 O] | 0.3 µg/mL | 188% | 144% | Toxic | – | – |
| NC1CCCCC1N.O=C([O-])[C@@H]1CCC[C@H]1C(=O)[O-].[Pt+2] (racemic) [Compound 27, trans-DL-1,2-cyclopentanedicarboxylato(DACH)Pt(II)] | 0.4 µg/mL | 158% | 159% | 183% | – | – |
| NC1CCCCC1N.O=C1OC(C(O)CO)C([O-])=C1O.O=C1OC(C(O)CO)C([O-])=C1O.[Pt+2] (stereo not drawn) [Compound 6, cis-bis-ascorbato(cis-DACH)Pt(II).5H2 O] | – | – | – | Toxic | Toxic | ID50 ([1]; 4320 min): 4.0 µg/mL |
| NC1CCCCC1N.O.O=C([O-])CC1(CC(=O)[O-])CCCCC1.[Pt+2] [Compound 23, 1,1-cyclohexanediacetato(DACH)Pt(II).1H2 O] | 0.6 µg/mL | – | – | – | – | – |
| NC1CCCCC1N.O.O.O=C([O-])C1=CC(O)C(O)C(O)C1.O=C([O-])C1=CC(O)C(O)C(O)C1.[Pt+2] (stereo not drawn) [Compound 10, cis-bis-shikimato(DACH)Pt(II).2H2 O] | – | – | – | 140% | 217% | Long Term Survivors ([2]; 100 mg/kg, alive 60 days after inoculation): 2/6; % T/C ([3]; 12.5 mg/kg): 139%; % T/C ([3]; 25 mg/kg): 149%; % T/C ([3]; 50 mg/kg): 222%; Long Term Survivors ([3]; 50 mg/kg): 1/6 |
| NC1CCCCC1N.O.O=C([O-])C1CCN1.O=C([O-])C1CCN1.[Pt+2] [Compound 15, cis-bis-L-azetidinecarboxylato(DACH)Pt(II).1H2 O] | 3.6 µg/mL | 157% | 148% | 161% | Toxic | – |
| NC1CCCCC1N.O.O=C([O-])C1CCCCC1.O=C([O-])C1CCCCC1.[Pt+2] [Compound 22, Cis-bis-cyclohexanecarboxylato(DACH)Pt(II).1H2 O] | 0.5 µg/mL | – | – | 140% | 170% | – |
| NC1CCCCC1N.O=C([O-])C1CC(O)CN1.O=C([O-])C1CC(O)CN1.[Pt+2] (mixture of isomers) [Compound 17, cis-bis-L-hyroxyprolinato(DACH)Pt(II).1H2 O] | 2.7 µg/mL | – | 160% | 170% | Toxic | – |
| NC1CCCCC1N.O.O=C([O-])C1CCC1.O=C([O-])C1CCC1.[Pt+2] (stereo not drawn) [Compound 30, Cis-bis-cyclobutanecarboxylato(DACH)Pt.1H2 O] | 0.4 µg/mL | 149% | 154% | 145% | – | – |
| Cis-bis-cyclohexenecarboxylato(DACH)Pt(II).1H2 O [Compound 24] | 1.0 µg/mL | – | 132% | 165% | 105% | – |
| NC1CCCCC1N.O.O.O=C([O-])C1CCCN1.O=C([O-])C1CCCN1.[Pt+2] [Compound 36, Cis-bis-L-prolinato(trans-R,R--DACH)Pt(II).2H2 O] | 0.8 µg/mL | 179% | 212% | 149% | – | Long Term Survivors (LTS) ([2]; 25 mg/kg): 1/6 |
| NC1CCCCC1N.O=C([O-])[C@@H]1C[C@H]1C(=O)[O-].[Pt+2] [Compound 40, trans-1,2-cyclopropanedicarboxylato(DACH)Pt(II)] | 0.4 µg/mL | – | – | – | – | – |
| NC1CCCCC1N.O.O=C([O-])C1(C(=O)[O-])CC1.[Pt+2] [Compound 20, cyclopropane-1,1-dicarboxylato(DACH)Pt(II).H2 O] | 0.41 µg/mL | – | – | – | – | – |
| NC1CCCCC1N.O=C([O-])[C@@H]1CC[C@H]1C(=O)[O-].[Pt+2] [Compound 41, trans-1,2-cyclobutanedicarboxylato(DACH)Pt(II)] | 0.5 µg/mL | – | – | – | – | – |
